Data on 3 compounds can be found in patent US20160355456A1, “PLANT EXTRACTS AND USE THEREOF” (TAKASAGO INTERNATIONAL CORPORATION, priority 2007, published 2016).

Format in all cases: biochemical
A short description of assay [1]: Deodorizing activity test (1) with laccase as polyphenol oxidase. Particulars: Laccase 1 mg, sample 2 mg, sodium methyl mercaptan 15% aqueous solution 2 μl, room temperature 10 minutes, head space gas detection tube. Here is the method:
(§1) Tyrosinase (mfd. by SIGMA, 1 mg) or laccase (mfd. by Amano Enzyme, 1 mg) was added as a polyphenol oxidase to each (2 mg) of 5-CQA (mfd. by Tokyo Chemical Industry), ferulic acid (mfd. by Tokyo Chemical Industry) and ferulylquinic acid and dissolved therein, and then sodium methyl mercaptan (mfd. by Tokyo Chemical Industry, 15% aqueous solution) (2 μl) was added thereto as a malodor substance and sealed therein, followed by stirring at room temperature for 10 minutes. The amount of methyl mercaptan in the head space part was measured using a gas detection tube (GASTEC Corporation, #71H) and the deodorizing ratio was calculated in accordance with the following mathematical expression.
(§2) In this connection, a system to which each of CQA or FQA (2 mg) and polyphenol oxidase were not added was used as a control plot.
(§3) Deodorizing ratio (%)=100−(methyl mercaptan concentration of sample plot/methyl mercaptan concentration of control plot)×100

The nature of assay [2]: Anti-oxidation activity test (DPPH radical elimination ability). Particulars: Trolox equivalent amount; sample 100 mg/l in 50% v/v ethanol, 1 mM DPPH, 30 minutes, absorbance 520 nm. Here is the method: As the anti-oxidation activity, to what extent it can eliminate DPPH (1,1-diphenyl-2-picrylhydrazyl) (mfd. by Tokyo Chemical Industry) radicals was evaluated by an absorptiometric method (520 nm). Its illustrative method is as the following anti-oxidation activity measuring method.
Used as the standard of radical elimination ability was Trolox (218940050: mfd. by ACROS ORGANICS) prepared from α-tocopherol which is a typical antioxidant substance by releasing its side chain to provide water-soluble nature. By preparing a calibration curve of Trolox concentration and absorbance (y=−0.2099x+0.4179), anti-oxidation activity of each sample was evaluated by converting it into Trolox equivalent amount. Regarding samples in the table, 5-CQA is manufactured by Tokyo Chemical Industry and ferulic acid is manufactured by Tokyo Chemical Industry.
1 mM ethanol solution of DPPH is prepared (39.4 mg/100 ml). After dissolution, DPPH is immediately used in the test (preparation when used).
By dissolving each sample in 50% v/v ethanol, its 100 mg/l solution is prepared.
A 4 ml portion of the above-mentioned sample solution and 1 ml of the DPPH solution are added to a test tube, followed by stirring and allowing to stand still for 30 minutes, and then absorbance at a wavelength of 520 nm is measured.
By applying absorbance of the sample to the calibration curve, Trolox equivalent amount (mol) is calculated.
Background: Loss of DPPH colour is used to gauge radical scavenging.

A short description of assay [3]: Deodorizing activity test (1) with tyrosinase as polyphenol oxidase. As to conditions: Tyrosinase 1 mg, sample 2 mg, sodium methyl mercaptan 15% aqueous solution 2 μl, room temperature 10 minutes, head space gas detection tube. On the procedure: as §1, §2, §3

As for `O=C(/C=C/c1ccc(O)c(O)c1)O[C@@H]1C[C@@](O)(C(=O)O)C[C@@H](O)[C@@H]1O` [Example 5-CQA, 5-caffeoylquinic acid], the “Deodorizing ratio (%)” value in assay [1] is given as 100%; in assay [3], 75%. Further, the “Anti-oxidation activity (T. μmol/μmol)” value in assay [2] worked out at 1.03 T. μmol/μmol.
For the compound `COc1cc(/C=C/C(=O)O)ccc1O` [Ferulic acid, ferulic acid], the “Deodorizing ratio (%)” value is −18% in assay [1] and −10% in assay [3]. Besides, the “Anti-oxidation activity (T. μmol/μmol)” value in assay [2] stood at 0.37 T. μmol/μmol.
For ferulylquinic acid the same measures were −18%, −20% and 0.35 T. μmol/μmol.
